How the values were obtained:
[1] = Heavy metal removal ability test in contaminated soil (ICP-MS), cadmium; conditions: for Cadmium (Cd) Adsorption amount: contaminated soil; for Cadmium (Cd) Adsorption rate: relative to EDTA control
Description: (§1) (1) Preparation of Soil Contaminated with Heavy Metal
(§2) After collecting and pulverizing uncontaminated soil, fine particles obtained by using a mesh were mixed with the aqueous heavy metal solution to prepare soil samples contaminated with heavy metals.
(§3) Each 3 ml of the prepared aqueous solution was added to a soil sample contaminated with heavy metals and mixed for 5 minutes.
(§4) 50 ml of distilled water was added to the contaminated soil mixed with the aqueous solution for restoring soil, stirred for 20 minutes, and settled for 1 hour, and a supernatant was prepared as a sample solution.
(§5) The prepared sample solution was analyzed for the heavy metal component using an Inductively Coupled Plasma Mass Spectrometer (ICP-MS) (Xseries™ 2, Thermo Fisher Scientific, UK).
(§6) Adsorption rate of heavy metals (%)=(Adsorption amount of Embodiment/Adsorption amount of Control)×100 Equation 1

[2] = Heavy metal removal ability test in contaminated soil (ICP-MS), arsenic; conditions: for Arsenic (As) Adsorption amount: contaminated soil; for Arsenic (As) Adsorption rate: relative to EDTA control
Description: as §1, §2, §3, §4, §5, §6

[3] = Heavy metal removal ability test in contaminated soil (ICP-MS), nickel; conditions: for Nickel (Ni) Adsorption amount: contaminated soil; for Nickel (Ni) Adsorption rate: relative to EDTA control
Description: as §1, §2, §3, §4, §5, §6

human skin = assay: Skin irritation test of active ingredient (patch method, CTFA guidelines); assay type: in vivo; conditions: 24 h patch; for Test result (number of subject) (+) / Test result (number of subject) (++) / Test result (number of subject) (±) / Test result (number of subject) (−): 20 people; for Test result (number of subject) (+): (+) apparent reddening; for Test result (number of subject) (++): (++) more reddened and swollen; for Test result (number of subject) (±): (±) slightly reddish; for Test result (number of subject) (−): (−) no erythema
Description: A filter paper disk was placed in an 8 mm diameter, 10 panels of pin chamber.
After 24 hours, the pin chamber was removed, and skin conditions were visually observed. The degree and grade for skin irritation were calculated according to the following Equation 2, and the results are shown in Table 4 below.
[Criteria for Skin Irritation]
(−): No erythema or particularly no symptoms; (±): slightly reddish than the periphery; (+): Apparent reddening than periphery; (++): More reddened and swollen than periphery.
[Grade for Skin Irritation]
Degree of irritation 0-0.1: Grade I (unstimulated);
Degree of irritation 0.11-0.3: Grade II (weakly stimulated);
Degree of irritation 0.31-0.5: Grade III (moderately stimulated);
Degree of irritation 0.51 or more: Grade IV (strongly stimulated)

[4] = Formaldehyde (formalin) removing ability test (GC); conditions: 2.0% formaldehyde solution, 3 molar equivalents of compound, room temperature; for Formaldehyde GC Area, 30 min: after 30 min; for Formaldehyde GC Area, 180 min: after 180 min; for Formaldehyde GC Area, Initial: initial state
[5] = Heavy metal removal ability test in contaminated soil around a factory (WAK-Me test kit); conditions: 1.0 wt % aqueous solution, colour comparison test kit
Description: The contaminated soil around the factory in the industrial complex was collected, pulverized, and meshed to prepare fine particles of soil samples.
Each 3 ml of aqueous solutions for restoring soil was added to soil samples and mixed for 5 minutes.

Structure (SMILES) | Cadmium (Cd) Adsorption amount ([1]; content 0.5% aqueous solution) [ppm] | Cadmium (Cd) Adsorption rate ([1]; content 0.5%) [%] | Cadmium (Cd) Adsorption amount ([1]; content 1.0% aqueous solution) [ppm] | Cadmium (Cd) Adsorption rate ([1]; content 1.0%) [%] | Cadmium (Cd) Adsorption amount ([1]; content 2.0% aqueous solution) [ppm] | Cadmium (Cd) Adsorption rate ([1]; content 2.0%) [%] | Arsenic (As) Adsorption amount ([2]; content 0.5% aqueous solution) [ppm] | Arsenic (As) Adsorption rate ([2]; content 0.5%) [%] | Arsenic (As) Adsorption amount ([2]; content 1.0% aqueous solution) [ppm] | Arsenic (As) Adsorption rate ([2]; content 1.0%) [%] | Arsenic (As) Adsorption amount ([2]; content 2.0% aqueous solution) [ppm] | Arsenic (As) Adsorption rate ([2]; content 2.0%) [%] | Nickel (Ni) Adsorption amount ([3]; content 0.5% aqueous solution) [ppm] | Nickel (Ni) Adsorption rate ([3]; content 0.5%) [%] | Nickel (Ni) Adsorption amount ([3]; content 1.0% aqueous solution) [ppm] | Nickel (Ni) Adsorption rate ([3]; content 1.0%) [%] | Nickel (Ni) Adsorption amount ([3]; content 2.0% aqueous solution) [ppm] | Nickel (Ni) Adsorption rate ([3]; content 2.0%) [%] | Test result (number of subject) (+) (human skin; content 0.1 wt %) | Total amount (Cu, Zn, Mn, Ni, Cd) [5] [ppm] | further results
O=C(O)c1cncc(N2CCCN(c3cncc(C(=O)O)c3)CCN(c3cncc(C(=O)O)c3)CCCN(c3cncc(C(=O)O)c3)CC2)c1 [Embodiment 11, 5,5′,5″,5′″-(1,4,8,11-tetraazacyclotetradecane-1,4,8,11-tetrayl)tetranicotinic Acid] | 59 | 144 | 66 | 161 | 70 | 171 | 38 | 152 | 41 | 164 | 47 | 188 | 79 | 161 | 88 | 180 | 93 | 190 | 0 | ≤5 | Test result (number of subject) (++) (human skin; content 0.1 wt %): 0; Test result (number of subject) (±) (human skin; content 0.1 wt %): 0; Test result (number of subject) (−) (human skin; content 0.1 wt %): 20; Degree of irritation (human skin; content 0.1 wt %): 0; Grade for skin irritation (human skin; content 0.1 wt %): I (Degree of irritation 0-0.1: Grade I (unstimulated)); Test result (number of subject) (+) (human skin; content 0.5 wt %): 0; Test result (number of subject) (++) (human skin; content 0.5 wt %): 0; Test result (number of subject) (±) (human skin; content 0.5 wt %): 0; Test result (number of subject) (−) (human skin; content 0.5 wt %): 20; Degree of irritation (human skin; content 0.5 wt %): 0; Grade for skin irritation (human skin; content 0.5 wt %): I (Degree of irritation 0-0.1: Grade I (unstimulated)); Test result (number of subject) (+) (human skin; content 1.0 wt %): 0; Test result (number of subject) (++) (human skin; content 1.0 wt %): 0; Test result (number of subject) (±) (human skin; content 1.0 wt %): 2; Test result (number of subject) (−) (human skin; content 1.0 wt %): 18; Degree of irritation (human skin; content 1.0 wt %): 0.10; Grade for skin irritation (human skin; content 1.0 wt %): I (Degree of irritation 0-0.1: Grade I (unstimulated)); Formaldehyde GC Area, 30 min [4]: 0.174 mAU*min; Formaldehyde GC Area, 180 min [4]: 0 mAU*min; Formaldehyde GC Area, Initial [4]: 0.305 mAU*min
O=C(O)c1ccc(N2CCCN(c3ccc(C(=O)O)cc3)CCN(c3ccc(C(=O)O)cc3)CCCN(c3ccc(C(=O)O)cc3)CC2)cc1 [Embodiment 10, 4,4′,4″,4′″-(1,4,8,11-tetraazacyclotetradecane-1,4,8,11-tetrayl)tetrabenzoic Acid] | 58 | 141 | 65 | 159 | 71 | 173 | 39 | 156 | 42 | 168 | 46 | 184 | 79 | 161 | 92 | 188 | 94 | 192 | 0 | ≤5 | Test result (number of subject) (++) (human skin; content 0.1 wt %): 0; Test result (number of subject) (±) (human skin; content 0.1 wt %): 0; Test result (number of subject) (−) (human skin; content 0.1 wt %): 20; Degree of irritation (human skin; content 0.1 wt %): 0; Grade for skin irritation (human skin; content 0.1 wt %): I (Degree of irritation 0-0.1: Grade I (unstimulated)); Test result (number of subject) (+) (human skin; content 0.5 wt %): 0; Test result (number of subject) (++) (human skin; content 0.5 wt %): 0; Test result (number of subject) (±) (human skin; content 0.5 wt %): 0; Test result (number of subject) (−) (human skin; content 0.5 wt %): 20; Degree of irritation (human skin; content 0.5 wt %): 0; Grade for skin irritation (human skin; content 0.5 wt %): I (Degree of irritation 0-0.1: Grade I (unstimulated)); Test result (number of subject) (+) (human skin; content 1.0 wt %): 0; Test result (number of subject) (++) (human skin; content 1.0 wt %): 0; Test result (number of subject) (±) (human skin; content 1.0 wt %): 1; Test result (number of subject) (−) (human skin; content 1.0 wt %): 19; Degree of irritation (human skin; content 1.0 wt %): 0.05; Grade for skin irritation (human skin; content 1.0 wt %): I (Degree of irritation 0-0.1: Grade I (unstimulated)); Formaldehyde GC Area, 30 min [4]: 0.171 mAU*min; Formaldehyde GC Area, 180 min [4]: 0 mAU*min; Formaldehyde GC Area, Initial [4]: 0.305 mAU*min
C1CNCCNCCNCCN1 [Cyclen, 1,4,7,10-tetraazacyclododecane] | 69 | 168 | 74 | 180 | 81 | 198 | 42 | 168 | 49 | 196 | 51 | 204 | 91 | 186 | 93 | 190 | 98 | 200 | 0 | ≤5 | Test result (number of subject) (++) (human skin; content 0.1 wt %): 0; Test result (number of subject) (±) (human skin; content 0.1 wt %): 0; Test result (number of subject) (−) (human skin; content 0.1 wt %): 20; Degree of irritation (human skin; content 0.1 wt %): 0; Grade for skin irritation (human skin; content 0.1 wt %): I (Degree of irritation 0-0.1: Grade I (unstimulated)); Test result (number of subject) (+) (human skin; content 0.5 wt %): 0; Test result (number of subject) (++) (human skin; content 0.5 wt %): 0; Test result (number of subject) (±) (human skin; content 0.5 wt %): 0; Test result (number of subject) (−) (human skin; content 0.5 wt %): 20; Degree of irritation (human skin; content 0.5 wt %): 0; Grade for skin irritation (human skin; content 0.5 wt %): I (Degree of irritation 0-0.1: Grade I (unstimulated)); Test result (number of subject) (+) (human skin; content 1.0 wt %): 1; Test result (number of subject) (++) (human skin; content 1.0 wt %): 0; Test result (number of subject) (±) (human skin; content 1.0 wt %): 1; Test result (number of subject) (−) (human skin; content 1.0 wt %): 18; Degree of irritation (human skin; content 1.0 wt %): 0.15; Grade for skin irritation (human skin; content 1.0 wt %): II (Degree of irritation 0.11-0.3: Grade II (weakly stimulated)); Formaldehyde GC Area, 30 min [4]: 0.181 mAU*min; Formaldehyde GC Area, 180 min [4]: 0 mAU*min; Formaldehyde GC Area, Initial [4]: 0.305 mAU*min
O=C(O)CN(CCN(CC(=O)O)CC(=O)O)CC(=O)O [Control (EDTA), ethylenediaminetetraacetic acid, reference compound] | 41 | – | – | – | – | – | 25 | – | – | – | – | – | 49 | – | – | – | – | – | – | 2.0 | –
